# Reference: patent publication EP1077981B1, “NOVEL CEPHALOSPORIN COMPOUNDS, PROCESSES FOR PREPARATION THEREOF AND ANTIMICROBIAL COMPOSITIONS CONTAINING THE SAME” (LG CHEMICAL LIMITED, priority 1998, dated 1999)
# Assays:
# Assay in all cases: MIC against standard strains (agar dilution)
# Format in all cases: cell-based
# [1] = system: Morganella morganii 1375E; conditions: Morganella morganii 1375E; Mueller-Hinton agar, 20 hours at 37°C; read-out: MIC
# Procedure: (§1) Test example 1: Measurement of Minimum Inhibitory Concentration (MIC)
# (§2) Specifically, test compounds were diluted by 2-fold dilution method and dispersed in Mueller-Hinton agar medium and then, 2µℓ of test strains were inoculated at a concentration of 10^7 cfu(colony forming unit)/mℓ on the medium and incubated for 20 hours at 37°C.
# [2] = system: Escherichia coli 3190Y; conditions: Escherichia coli, 3190Y, 20 h
# Procedure: as §1, §2
# [3] = system: Klebsiella pneumoniae 2011E; conditions: Klebsiella pneumoniae 2011E; Mueller-Hinton agar, 20 hours at 37°C; read-out: MIC
# Procedure: as §1, §2
# [4] = system: Escherichia coli TEM3 3455E; conditions: TEM33455E, 20 h
# Procedure: as §1, §2
# [5] = system: Staphylococcus aureus 77; conditions: Staphylococcus aureus 77; Mueller-Hinton agar, 20 hours at 37°C; read-out: MIC
# Procedure: as §1, §2
# [6] = system: Enterococcus faecalis 29212; conditions: Enterococcus faecalis 29212; Mueller-Hinton agar, 20 hours at 37°C; read-out: MIC
# Procedure: as §1, §2
# [7] = system: Pseudomonas aeruginosa 6065Y; conditions: Pseudomonas aeruginosa 6065Y; Mueller-Hinton agar, 20 hours at 37°C; read-out: MIC
# Procedure: as §1, §2
# [8] = system: Escherichia coli TEM9 2639E; conditions: TEM92639E; Escherichia coli TEM9 2639E; Mueller-Hinton agar, 20 hours at 37°C; read-out: MIC
# Procedure: as §1, §2
# [9] = system: Escherichia coli 851E; conditions: Escherichia coli, 851E, 20 h
# Procedure: as §1, §2
# [10] = system: Enterobacter cloacae IND+VE 1194E; conditions: Enterobacter cloacae IND+VE 1194E; Mueller-Hinton agar, 20 hours at 37°C; read-out: MIC
# Procedure: as §1, §2
# [11] = system: Moraxella catarrhalis 25240; conditions: Moraxella catarrhalis 25240; Mueller-Hinton agar, 20 hours at 37°C; read-out: MIC
# Procedure: as §1, §2
# [12] = system: Serratia marcescens 1826E; conditions: Serratia marcescens 1826E; Mueller-Hinton agar, 20 hours at 37°C; read-out: MIC
# Procedure: as §1, §2
# [13] = system: Escherichia coli 10536; conditions: Escherichia coli 10536; Mueller-Hinton agar, 20 hours at 37°C; read-out: MIC
# Procedure: as §1, §2
# [14] = system: Klebsiella aerogenes K1+ 1082E; conditions: Klebsiella aerogenes K1+ 1082E; Mueller-Hinton agar, 20 hours at 37°C; read-out: MIC
# Procedure: as §1, §2
# [15] = system: Staphylococcus aureus giorgio; conditions: Staphylococcus aureus giorgio; Mueller-Hinton agar, 20 hours at 37°C; read-out: MIC
# Procedure: as §1, §2
# [16] = system: Proteus vulgaris 6059; conditions: Proteus vulgaris 6059; Mueller-Hinton agar, 20 hours at 37°C; read-out: MIC
# Procedure: as §1, §2
# [17] = system: Enterobacter cloacae P99; conditions: Enterobacter cloacae P99; Mueller-Hinton agar, 20 hours at 37°C; read-out: MIC
# Procedure: as §1, §2
# [18] = system: Citrobacter diversus 2046E; conditions: Citrobacter koseri; Citrobacter diversus 2046E; Mueller-Hinton agar, 20 hours at 37°C; read-out: MIC
# Procedure: as §1, §2
# [19] = system: Escherichia coli TEM1 1193E; conditions: TEM11193E, 20 h
# Procedure: as §1, §2
# [20] = system: Salmonella typhimurium 14028; conditions: Salmonella enterica; Salmonella typhimurium 14028; Mueller-Hinton agar, 20 hours at 37°C; read-out: MIC
# Procedure: as §1, §2
# [21] = system: Staphylococcus aureus 6538p; conditions: Staphylococcus aureus 6538p; Mueller-Hinton agar, 20 hours at 37°C; read-out: MIC
# Procedure: as §1, §2
# [22] = system: Klebsiella aerogenes SHV-1 1976E; conditions: Klebsiella aerogenes, 20 h
# Procedure: as §1, §2
# [23] = system: Citrobacter freundii 8090; conditions: Citrobacter freundii 8090; Mueller-Hinton agar, 20 hours at 37°C; read-out: MIC
# Procedure: as §1, §2
# [24] = system: Moraxella catarrhalis C2431; conditions: Moraxella catarrhalis C2431; Mueller-Hinton agar, 20 hours at 37°C; read-out: MIC
# Procedure: as §1, §2
# [25] = system: Staphylococcus epidermidi 887E; conditions: Staphylococcus epidermidi 887E; Mueller-Hinton agar, 20 hours at 37°C; read-out: MIC
# Procedure: as §1, §2
# [26] = system: Staphylococcus aureus 241; conditions: Staphylococcus aureus 241; Mueller-Hinton agar, 20 hours at 37°C; read-out: MIC
# Procedure: as §1, §2
# [27] = system: Acinetobacter calcoaceticu 15473; conditions: Acinetobacter calcoaceticu 15473; Mueller-Hinton agar, 20 hours at 37°C; read-out: MIC
# Procedure: as §1, §2
# [28] = system: Pseudomonas aeruginosa 1912E; conditions: Pseudomonas aeruginosa 1912E; Mueller-Hinton agar, 20 hours at 37°C; read-out: MIC
# Procedure: as §1, §2
smiles,measurement,setting,value
"CCO/N=C(\C(=O)NC1C(=O)N2C(C(=O)O)=C(Sc3cc(N)nc(N)n3)CSC12)c1csc(N)n1 (stereo not shown) [compound 27, 7-[(Z)-2-(2-amino-thiazol-4-yl)-2-ethoxyiminoacetylamino]-3-(2,6-diamino-pyrimidin-4-ylsulfanyl)-8-oxo-5-thia-1-aza-bi cyclo[4,2,0]oct-2-ene-2-carboxylic acid]",MIC,[1],0.25 mg/L
same,MIC,[2],0.13 mg/L
same,MIC,[3],2 mg/L
same,MIC,[4],16 mg/L
same,MIC,[5],4 mg/L
same,MIC,[6],64 mg/L
same,MIC,[7],64 mg/L
same,MIC,[8],64 mg/L
same,MIC,[9],0.25 mg/L
same,MIC,[10],> 64 mg/L
same,MIC,[11],≤ 0.008 mg/L
same,MIC,[12],4 mg/L
same,MIC,[13],0.25 mg/L
same,MIC,[14],> 64 mg/L
same,MIC,[15],0.5 mg/L
same,MIC,[16],0.063 mg/L
same,MIC,[17],> 64 mg/L
same,MIC,[18],64 mg/L
same,MIC,[19],0.5 mg/L
same,MIC,[20],1 mg/L
same,MIC,[21],2 mg/L
same,MIC,[22],0.5 mg/L
same,MIC,[23],2 mg/L
same,MIC,[24],≤ 0.008 mg/L
same,MIC,[25],8 mg/L
same,MIC,[26],8 mg/L
same,MIC,[27],32 mg/L
same,MIC,[28],8 mg/L
